{
  "source": "patent US20250161245A1",
  "about": "“A MIXTURE OF UREA, BIURET AND N-CONTAINING BY-PRODUCTS CREATED DURING BIURET PRODUCTION AS A DIETARY NON-PROTEIN NITROGEN-SOURCE FOR RUMINANTS AND USES THEREOF” (Yara International ASA, priority 2022, published 2025)",
  "test_system": "ruminal fluid",
  "assay": "in vitro batch culture incubations: VFA, ammonia-N, pH (Example 4)",
  "assay_type": "cell-based, Angus crossbred steers",
  "conditions": "corn silage-based diet",
  "experimental": "In this example, an in vitro assay was performed using batch culture incubations, aiming to simulate rumen fermentation.\nTwo ruminally cannulated Angus crossbred steers (808.8±36.3 kg body weight) were used as ruminal fluid donors for the in vitro batch culture incubations. The steers were fed a corn silage and gin trash diet (70% and 30% on a dry matter basis, respectively) ad libitum at least 35 days before collecting ruminal fluid to perform the in vitro incubations. Each steer received a NPN-mixture equivalent to 100 g of urea per day comprised of an equal amount of N from the different NPN sources to adapt the rumen microbial community. Thus, each steer was fed daily 33 g of urea (46 wt. % N) or 37 g of a urea-biuret mixture according to the present disclosure (UB) comprising 41 wt. % N. These amounts were mixed in with the feed diet every two days.\nThe in vitro batch culture incubations were conducted as a randomized complete block design using 70 wt. % corn silage and 30 wt. % gin trash on a dry matter basis conserving the diet characteristics used during the animal adaptation period. The treatments were designed to be isonitrogenous (=having the same amount of dietary nitrogen) and equivalent to 1 wt. % of urea inclusion. The NPN treatments were consequently as follows: • Control without NPN-supplementation (“control”); • 100 wt % urea (Rumisan®) (“urea”); • 100 wt % of a urea/biuret mixture according to the present application (“UB”).\nThe in vitro incubations were conducted on three separate days (replicates). A representative sample of digesta was collected from different places in the rumen of ruminally cannulated steers and strained through 4 layers of cheesecloth, placed in pre-warmed thermos containers, and transported to the laboratory within 30 minutes after the collection. In the laboratory, the ruminal fluid from the two steers was maintained under constant CO2-flux and was combined in equal proportions. This combined ruminal fluid was mixed with McDougall's buffer (McDougall, 1948) with and without 0.077 g/liter of 10 wt. % ammonium sulfate enriched with ^15N in relation 1:4, and it was used as an inoculum. Two bottles of 500 ml fitted with a side arm and a rubber septum were incubated per treatment. The bottles contained 5.6 g of substrate dry matter and 400 ml of ^15N enriched inoculum, and were incubated for 24 hours at 39° C. with an agitation of 60 rpm to monitor gas production kinetics using an Ankom Gas Monitoring System from Ankom Technologies, Fairport, New York. Also, one 500-ml bottle without 15N enriched inoculum was incubated to determine the basal ^15N enrichment. At 12 hours of incubation, two samples of 10 ml of rumen fluid were collected from each bottle through the septa port using a 20-ml syringe. These samples were acidified by adding 10 μl of a 20 vol/vol % of H2SO4-solution to each 10-ml sample, and frozen at minus 20° C. until further analysis. At the end of the 24 hours incubation, the final pH was recorded, the bottles were placed on ice to prevent further microbial fermentation and two 10-ml samples were collected and acidified by adding 20 μl of a 20 vol/vol % of H2SO4-solution and were frozen at minus 20° C. until further analysis. The remaining fermentation content was thereafter agitated at 60 rpm for 30 seconds and divided into two subsamples. […]",
  "key": {"[1]": {"conditions": "12 hours of incubation, equivalent to 1 wt. % urea"}},
  "data": [
    {"smiles": "NC(N)=O", "note": "[Urea, urea]", "values": [
      {"measurement": "Ammonia-N", "setting": "[1]", "value": 2.74, "unit": "mM"},
      {"measurement": "Total VFA", "setting": "[1]", "value": 31.77, "unit": "mM"},
      {"measurement": "Ammonia-N", "setting": "24 hours of incubation", "value": 6.55, "unit": "mM"},
      {"measurement": "Total VFA", "setting": "24 hours of incubation", "value": 40.96, "unit": "mM"},
      {"measurement": "pH", "setting": "24 hours of incubation", "value": 6.38}
    ]}
  ]
}
